In PubChem BioAssay (NCI):
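Growth conditions: 96-well plates. Treatment: test compound, 48 hours, 5 concentrations. Analysis: linear interpolation between bracketing concentrations; unreached endpoints set to highest concentration. Abbreviation: GI50, concentration required for 50% inhibition of growth. At the TGI there is no net growth.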

Key:
Test in all cases: NCI anticancer screen, dose series, 48 h
HS 578T breast = test system: HS 578T breast
A549 NSCLC = test system: A549 NSCLC
MDA-MB-231 breast = test system: MDA-MB-231 breast
U251 CNS = test system: U251 CNS
HCT-116 colon = test system: HCT-116 colon
KM12 colon = test system: KM12 colon
OVCAR-4 ovarian = test system: OVCAR-4 ovarian
M14 melanoma = test system: M14 melanoma
SK-MEL-28 melanoma = test system: SK-MEL-28 melanoma
HL-60(TB) leukemia = test system: HL-60(TB) leukemia
NCI/ADR-RES ovarian = test system: NCI/ADR-RES ovarian
MDA-MB-435 = test system: MDA-MB-435
CAKI-1 renal = test system: CAKI-1 renal
MCF7 breast = test system: MCF7 breast
LOX IMVI melanoma = test system: LOX IMVI melanoma
SR leukemia = test system: SR leukemia
HOP-92 NSCLC = test system: HOP-92 NSCLC
SW-620 colon = test system: SW-620 colon
HOP-62 NSCLC = test system: HOP-62 NSCLC
UACC-257 melanoma = test system: UACC-257 melanoma
PC-3 prostate = test system: PC-3 prostate
NCI-H522 lung = test system: NCI-H522 lung
RPMI-8226 leukemia = test system: RPMI-8226 leukemia
SF-268 CNS = test system: SF-268 CNS
SN12C renal = test system: SN12C renal
786-0 renal = test system: 786-0 renal
DU-145 prostate = test system: DU-145 prostate
HCT-15 colon = test system: HCT-15 colon
HCC-2998 colon = test system: HCC-2998 colon
SNB-19 CNS = test system: SNB-19 CNS
RXF 393 renal = test system: RXF 393 renal
EKVX NSCLC = test system: EKVX NSCLC
K-562 leukemia = test system: K-562 leukemia
SF-539 CNS = test system: SF-539 CNS
BT-549 breast = test system: BT-549 breast
OVCAR-8 ovarian = test system: OVCAR-8 ovarian
IGROV1 ovarian = test system: IGROV1 ovarian
UACC-62 melanoma = test system: UACC-62 melanoma
TK-10 renal = test system: TK-10 renal
NCI-H460 lung = test system: NCI-H460 lung
SK-MEL-5 melanoma = test system: SK-MEL-5 melanoma
OVCAR-5 ovarian = test system: OVCAR-5 ovarian
T-47D breast = test system: T-47D breast
NCI-H23 lung = test system: NCI-H23 lung
SK-MEL-2 melanoma = test system: SK-MEL-2 melanoma
COLO 205 colon = test system: COLO 205 colon
SK-OV-3 ovarian = test system: SK-OV-3 ovarian
SF-295 CNS = test system: SF-295 CNS
ACHN renal = test system: ACHN renal
UO-31 renal = test system: UO-31 renal
OVCAR-3 ovarian = test system: OVCAR-3 ovarian

In the case of COC(=O)C1=C(O)[C@H](C(=O)OC)C2(O)[C@@H](C(=O)OC)[C@H]1C[C@@H](c1ccc(OC(=O)n3ccnc3)cc1)[C@@H]2C(=O)OC, the GI50 (HS 578T breast) is reported as 12.6 µM, the TGI (HS 578T breast) is reported as 41.3 µM and the GI50 (A549 NSCLC) is reported as 15.2 µM. For the same compound, the TGI (A549 NSCLC) was over 50 µM, the GI50 (MDA-MB-231 breast) was 14.8 µM and the TGI (MDA-MB-231 breast) was 48.6 µM. For the same compound, the GI50 (U251 CNS) was 17.9 µM, the TGI (U251 CNS) was over 50 µM and the GI50 (HCT-116 colon) was 16.8 µM. It also gave a TGI (HCT-116 colon) of over 50 µM, a GI50 (KM12 colon) of 10.6 µM and a TGI (KM12 colon) of 24.5 µM. It also gave a GI50 (OVCAR-4 ovarian) of 20.2 µM, a TGI (OVCAR-4 ovarian) of over 50 µM and a GI50 (M14 melanoma) of 30.3 µM. The TGI (M14 melanoma) was over 50 µM, the GI50 (SK-MEL-28 melanoma) was 10.1 µM and the TGI (SK-MEL-28 melanoma) was 30.5 µM. The GI50 (HL-60(TB) leukemia) was 13.3 µM, the TGI (HL-60(TB) leukemia) was over 50 µM and the GI50 (NCI/ADR-RES ovarian) was 16.1 µM. It also gave a TGI (NCI/ADR-RES ovarian) of 30.7 µM, a GI50 (MDA-MB-435) of 8.77 µM and a TGI (MDA-MB-435) of 21.4 µM. It also gave a GI50 (CAKI-1 renal) of 12.7 µM, a TGI (CAKI-1 renal) of 41.6 µM and a GI50 (MCF7 breast) of 18.4 µM. The TGI (MCF7 breast) was over 50 µM, the GI50 (LOX IMVI melanoma) was 13.8 µM and the TGI (LOX IMVI melanoma) was over 50 µM. It also gave a GI50 (SR leukemia) of 10.8 µM, a TGI (SR leukemia) of over 50 µM and a GI50 (HOP-92 NSCLC) of 17.3 µM. The TGI (HOP-92 NSCLC) was over 50 µM, the GI50 (SW-620 colon) was 14.3 µM and the TGI (SW-620 colon) was over 50 µM. The GI50 (HOP-62 NSCLC) was 31.3 µM, the TGI (HOP-62 NSCLC) was over 50 µM and the GI50 (UACC-257 melanoma) was 16 µM. For the same compound, the TGI (UACC-257 melanoma) was 39.8 µM, the GI50 (PC-3 prostate) was 22.4 µM and the TGI (PC-3 prostate) was over 50 µM. For the same compound, the GI50 (NCI-H522 lung) was 10.9 µM, the TGI (NCI-H522 lung) was 34.4 µM and the GI50 (RPMI-8226 leukemia) was 18.1 µM. For the same compound, the TGI (RPMI-8226 leukemia) was over 50 µM, the GI50 (SF-268 CNS) was 18.7 µM and the TGI (SF-268 CNS) was over 50 µM. For the same compound, the GI50 (SN12C renal) was 11.4 µM, the TGI (SN12C renal) was 30 µM and the GI50 (786-0 renal) was 18.6 µM. The TGI (786-0 renal) was 45.6 µM, the GI50 (DU-145 prostate) was 11.7 µM and the TGI (DU-145 prostate) was 42.9 µM. For the same compound, the GI50 (HCT-15 colon) was 21 µM, the TGI (HCT-15 colon) was over 50 µM and the GI50 (HCC-2998 colon) was 9.63 µM. It also gave a TGI (HCC-2998 colon) of 18 µM, a GI50 (SNB-19 CNS) of 19.6 µM and a TGI (SNB-19 CNS) of over 50 µM. It also gave a GI50 (RXF 393 renal) of 11.8 µM, a TGI (RXF 393 renal) of 26.7 µM and a GI50 (EKVX NSCLC) of 13.1 µM. For the same compound, the TGI (EKVX NSCLC) was 45.4 µM, the GI50 (K-562 leukemia) was 20.3 µM and the TGI (K-562 leukemia) was over 50 µM. The GI50 (SF-539 CNS) was 8.44 µM, the TGI (SF-539 CNS) was 21.3 µM and the GI50 (BT-549 breast) was 8.68 µM. For the same compound, the TGI (BT-549 breast) was 24.9 µM, the GI50 (OVCAR-8 ovarian) was 13.4 µM and the TGI (OVCAR-8 ovarian) was 36.4 µM. It also gave a GI50 (IGROV1 ovarian) of 6.62 µM, a TGI (IGROV1 ovarian) of 25.4 µM and a GI50 (UACC-62 melanoma) of 9.07 µM. For the same compound, the TGI (UACC-62 melanoma) was 30.4 µM, the GI50 (TK-10 renal) was 36.8 µM and the TGI (TK-10 renal) was over 50 µM. For the same compound, the GI50 (NCI-H460 lung) was 17 µM, the TGI (NCI-H460 lung) was over 50 µM and the GI50 (SK-MEL-5 melanoma) was 12.7 µM. It also gave a TGI (SK-MEL-5 melanoma) of 36.7 µM, a GI50 (OVCAR-5 ovarian) of 25.7 µM and a TGI (OVCAR-5 ovarian) of over 50 µM. The GI50 (T-47D breast) was 7.39 µM, the TGI (T-47D breast) was 46.4 µM and the GI50 (NCI-H23 lung) was 13.9 µM. It also gave a TGI (NCI-H23 lung) of 25.6 µM, a GI50 (SK-MEL-2 melanoma) of 22.8 µM and a TGI (SK-MEL-2 melanoma) of over 50 µM. The GI50 (COLO 205 colon) was 9.69 µM, the TGI (COLO 205 colon) was 34.1 µM and the GI50 (SK-OV-3 ovarian) was 10.3 µM. The TGI (SK-OV-3 ovarian) was 29.6 µM, the GI50 (SF-295 CNS) was 12.7 µM and the TGI (SF-295 CNS) was 45.6 µM. The GI50 (ACHN renal) was 15.9 µM, the TGI (ACHN renal) was 42.6 µM and the GI50 (UO-31 renal) was 8.87 µM. It also gave a TGI (UO-31 renal) of 17.8 µM, a GI50 (OVCAR-3 ovarian) of 12.6 µM and a TGI (OVCAR-3 ovarian) of over 50 µM.
